Laboratory results taken from article PMC11864979, “First-in-class ultralong-target-residence-time p38α inhibitors as a mitosis-targeted therapy for colorectal cancer” (Nature Cancer, 2025).
Read-outs that look alike come from different tables or passages of the source.

Legend:
Assay in all cases: selectivity profiling in a panel of 340 wild-type kinases (Reaction Biology Europe)
Type in all cases: binding
[1] = target: T1, 340 wild-type kinases (Homo sapiens, UniProt P06239)
T1 construct: purchased Reaction Biology Europe

[2] = target: T2, 340 wild-type kinases (Homo sapiens, UniProt P07332)
T2 construct: purchased Reaction Biology Europe

[3] = target: T3, 340 wild-type kinases (Homo sapiens, UniProt P11802)
T3 construct: purchased Reaction Biology Europe

[4] = target: T4, 340 wild-type kinases (Homo sapiens, UniProt P30530)
T4 construct: purchased Reaction Biology Europe
T4 sequence (P30530 26-894): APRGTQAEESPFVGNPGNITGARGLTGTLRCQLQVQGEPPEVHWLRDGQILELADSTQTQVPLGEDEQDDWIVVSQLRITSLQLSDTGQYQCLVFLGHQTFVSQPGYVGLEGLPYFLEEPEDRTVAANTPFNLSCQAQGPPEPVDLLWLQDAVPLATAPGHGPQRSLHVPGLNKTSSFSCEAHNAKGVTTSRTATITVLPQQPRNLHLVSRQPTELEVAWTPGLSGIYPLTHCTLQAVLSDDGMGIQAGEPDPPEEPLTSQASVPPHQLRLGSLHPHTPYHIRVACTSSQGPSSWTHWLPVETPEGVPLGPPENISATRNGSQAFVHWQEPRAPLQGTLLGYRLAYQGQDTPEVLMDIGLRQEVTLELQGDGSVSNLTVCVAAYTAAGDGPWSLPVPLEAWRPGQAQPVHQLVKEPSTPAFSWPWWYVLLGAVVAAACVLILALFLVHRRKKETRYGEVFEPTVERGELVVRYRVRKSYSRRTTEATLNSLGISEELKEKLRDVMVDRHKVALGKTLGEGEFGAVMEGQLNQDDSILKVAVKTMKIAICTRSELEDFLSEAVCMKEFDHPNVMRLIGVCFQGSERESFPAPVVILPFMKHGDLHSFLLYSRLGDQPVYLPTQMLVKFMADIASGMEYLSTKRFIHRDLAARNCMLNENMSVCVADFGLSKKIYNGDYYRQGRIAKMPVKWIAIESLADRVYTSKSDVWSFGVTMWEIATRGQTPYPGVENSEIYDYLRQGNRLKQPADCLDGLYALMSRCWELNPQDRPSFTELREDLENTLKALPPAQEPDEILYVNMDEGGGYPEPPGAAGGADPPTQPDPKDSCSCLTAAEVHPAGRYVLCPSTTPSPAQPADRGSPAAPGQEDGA

[5] = target: T5, 340 wild-type kinases (Homo sapiens, UniProt P45985)
T5 construct: purchased Reaction Biology Europe
T5 sequence (P45985 1-399): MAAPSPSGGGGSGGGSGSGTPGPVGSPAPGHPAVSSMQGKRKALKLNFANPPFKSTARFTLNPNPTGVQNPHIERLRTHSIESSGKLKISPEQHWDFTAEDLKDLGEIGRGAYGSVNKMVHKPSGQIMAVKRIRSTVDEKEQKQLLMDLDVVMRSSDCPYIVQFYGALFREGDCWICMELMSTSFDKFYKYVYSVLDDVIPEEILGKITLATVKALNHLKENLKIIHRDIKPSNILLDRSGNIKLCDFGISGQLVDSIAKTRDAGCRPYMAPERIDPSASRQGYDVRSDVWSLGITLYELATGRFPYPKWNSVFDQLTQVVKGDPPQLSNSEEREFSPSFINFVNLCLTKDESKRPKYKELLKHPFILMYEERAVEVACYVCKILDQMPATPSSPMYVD

[6] = target: T6, 340 wild-type kinases (Homo sapiens, UniProt Q00536)
T6 construct: purchased Reaction Biology Europe

[7] = target: T7, 340 wild-type kinases (Homo sapiens, UniProt Q05655)
T7 construct: purchased Reaction Biology Europe

[8] = target: T8, 340 wild-type kinases (Homo sapiens, UniProt Q15746)
T8 construct: purchased Reaction Biology Europe
T8 sequence (Q15746 whole entry): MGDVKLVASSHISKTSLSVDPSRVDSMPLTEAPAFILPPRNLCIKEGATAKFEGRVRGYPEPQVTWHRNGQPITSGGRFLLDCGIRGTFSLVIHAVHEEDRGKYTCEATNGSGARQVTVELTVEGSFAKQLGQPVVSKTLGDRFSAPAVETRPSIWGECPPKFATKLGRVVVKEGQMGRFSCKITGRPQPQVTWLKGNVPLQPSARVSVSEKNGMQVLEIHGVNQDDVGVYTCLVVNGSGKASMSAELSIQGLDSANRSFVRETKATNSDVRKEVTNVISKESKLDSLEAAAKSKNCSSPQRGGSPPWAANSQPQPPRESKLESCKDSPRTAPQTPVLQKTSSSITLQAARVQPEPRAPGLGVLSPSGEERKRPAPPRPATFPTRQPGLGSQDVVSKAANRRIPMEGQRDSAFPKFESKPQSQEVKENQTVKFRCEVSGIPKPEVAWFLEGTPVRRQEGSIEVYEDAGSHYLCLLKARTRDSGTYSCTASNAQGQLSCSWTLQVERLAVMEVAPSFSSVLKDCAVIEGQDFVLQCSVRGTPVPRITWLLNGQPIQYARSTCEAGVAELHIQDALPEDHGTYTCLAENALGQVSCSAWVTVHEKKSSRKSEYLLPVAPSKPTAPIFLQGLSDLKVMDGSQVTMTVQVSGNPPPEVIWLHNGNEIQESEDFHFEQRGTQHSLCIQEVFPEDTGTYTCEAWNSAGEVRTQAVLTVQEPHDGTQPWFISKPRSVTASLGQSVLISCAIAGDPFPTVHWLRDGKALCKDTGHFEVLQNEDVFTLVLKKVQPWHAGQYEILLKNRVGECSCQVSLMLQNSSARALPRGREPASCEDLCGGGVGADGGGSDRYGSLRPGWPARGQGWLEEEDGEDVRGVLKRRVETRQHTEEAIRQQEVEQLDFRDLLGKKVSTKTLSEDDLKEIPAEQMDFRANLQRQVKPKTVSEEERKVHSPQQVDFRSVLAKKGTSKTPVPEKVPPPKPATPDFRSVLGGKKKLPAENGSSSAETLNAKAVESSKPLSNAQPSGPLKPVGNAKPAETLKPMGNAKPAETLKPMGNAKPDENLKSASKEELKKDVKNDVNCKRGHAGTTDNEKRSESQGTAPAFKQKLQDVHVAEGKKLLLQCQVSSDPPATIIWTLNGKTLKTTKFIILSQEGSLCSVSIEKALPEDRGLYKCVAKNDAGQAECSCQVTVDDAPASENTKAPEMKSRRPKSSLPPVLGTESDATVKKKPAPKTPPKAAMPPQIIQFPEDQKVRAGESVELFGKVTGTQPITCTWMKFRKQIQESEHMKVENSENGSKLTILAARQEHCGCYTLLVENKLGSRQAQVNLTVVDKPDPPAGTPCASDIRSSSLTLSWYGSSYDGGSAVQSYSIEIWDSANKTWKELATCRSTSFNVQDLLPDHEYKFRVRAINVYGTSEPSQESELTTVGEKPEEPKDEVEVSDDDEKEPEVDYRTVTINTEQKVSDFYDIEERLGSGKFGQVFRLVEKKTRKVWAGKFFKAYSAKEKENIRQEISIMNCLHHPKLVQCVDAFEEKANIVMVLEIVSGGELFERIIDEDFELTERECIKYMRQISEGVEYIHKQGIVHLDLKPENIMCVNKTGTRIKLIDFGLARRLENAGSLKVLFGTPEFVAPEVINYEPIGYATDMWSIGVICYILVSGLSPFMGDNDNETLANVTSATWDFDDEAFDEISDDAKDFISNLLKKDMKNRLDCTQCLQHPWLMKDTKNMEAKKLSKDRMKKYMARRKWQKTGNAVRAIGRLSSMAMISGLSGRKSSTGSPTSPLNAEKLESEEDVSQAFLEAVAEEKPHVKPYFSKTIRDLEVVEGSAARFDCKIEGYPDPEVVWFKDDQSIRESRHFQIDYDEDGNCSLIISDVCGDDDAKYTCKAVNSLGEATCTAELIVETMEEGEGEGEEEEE

T3 sequence (P11802 whole entry): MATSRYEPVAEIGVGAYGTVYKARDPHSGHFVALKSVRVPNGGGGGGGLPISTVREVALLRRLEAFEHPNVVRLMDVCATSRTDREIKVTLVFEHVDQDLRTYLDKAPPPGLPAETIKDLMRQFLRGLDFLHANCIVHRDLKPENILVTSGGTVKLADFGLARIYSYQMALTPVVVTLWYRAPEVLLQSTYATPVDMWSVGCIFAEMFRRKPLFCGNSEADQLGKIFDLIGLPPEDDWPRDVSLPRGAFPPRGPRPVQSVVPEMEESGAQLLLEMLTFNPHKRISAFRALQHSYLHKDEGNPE
T2 sequence (P07332 whole entry): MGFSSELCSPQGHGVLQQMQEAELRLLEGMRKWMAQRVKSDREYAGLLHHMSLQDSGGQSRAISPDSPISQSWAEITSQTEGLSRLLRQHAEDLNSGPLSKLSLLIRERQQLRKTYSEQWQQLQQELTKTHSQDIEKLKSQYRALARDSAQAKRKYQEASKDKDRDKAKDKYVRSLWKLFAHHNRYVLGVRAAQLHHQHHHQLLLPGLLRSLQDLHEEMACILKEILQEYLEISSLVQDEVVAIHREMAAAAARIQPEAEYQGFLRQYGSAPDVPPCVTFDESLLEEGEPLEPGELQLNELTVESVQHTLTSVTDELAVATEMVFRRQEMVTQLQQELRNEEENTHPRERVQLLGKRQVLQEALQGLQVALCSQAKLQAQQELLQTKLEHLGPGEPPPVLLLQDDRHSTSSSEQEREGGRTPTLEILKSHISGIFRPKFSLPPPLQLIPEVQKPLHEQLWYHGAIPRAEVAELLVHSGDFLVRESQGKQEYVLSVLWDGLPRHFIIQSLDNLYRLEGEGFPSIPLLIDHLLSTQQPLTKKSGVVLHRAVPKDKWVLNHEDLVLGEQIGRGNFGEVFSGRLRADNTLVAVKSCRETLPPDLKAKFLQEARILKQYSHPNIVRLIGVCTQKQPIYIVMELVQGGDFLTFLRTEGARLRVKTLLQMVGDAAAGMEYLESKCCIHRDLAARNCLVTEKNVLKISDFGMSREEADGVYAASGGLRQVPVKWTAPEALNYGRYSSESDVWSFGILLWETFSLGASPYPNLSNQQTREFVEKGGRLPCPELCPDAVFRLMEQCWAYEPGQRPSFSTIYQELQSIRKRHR
T6 sequence (Q00536 whole entry): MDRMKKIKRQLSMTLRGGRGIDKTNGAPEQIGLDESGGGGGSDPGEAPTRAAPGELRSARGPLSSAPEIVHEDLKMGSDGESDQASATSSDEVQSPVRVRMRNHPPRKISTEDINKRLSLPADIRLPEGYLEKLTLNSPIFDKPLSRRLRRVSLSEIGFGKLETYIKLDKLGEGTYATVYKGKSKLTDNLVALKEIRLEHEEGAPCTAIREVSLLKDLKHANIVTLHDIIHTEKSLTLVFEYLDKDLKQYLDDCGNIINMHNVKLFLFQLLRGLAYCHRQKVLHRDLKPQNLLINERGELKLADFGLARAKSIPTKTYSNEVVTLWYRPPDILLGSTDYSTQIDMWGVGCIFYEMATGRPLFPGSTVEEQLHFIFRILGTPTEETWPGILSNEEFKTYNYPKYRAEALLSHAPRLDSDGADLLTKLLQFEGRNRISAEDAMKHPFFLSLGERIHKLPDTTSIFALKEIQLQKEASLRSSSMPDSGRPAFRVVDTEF
T7 sequence (Q05655 whole entry): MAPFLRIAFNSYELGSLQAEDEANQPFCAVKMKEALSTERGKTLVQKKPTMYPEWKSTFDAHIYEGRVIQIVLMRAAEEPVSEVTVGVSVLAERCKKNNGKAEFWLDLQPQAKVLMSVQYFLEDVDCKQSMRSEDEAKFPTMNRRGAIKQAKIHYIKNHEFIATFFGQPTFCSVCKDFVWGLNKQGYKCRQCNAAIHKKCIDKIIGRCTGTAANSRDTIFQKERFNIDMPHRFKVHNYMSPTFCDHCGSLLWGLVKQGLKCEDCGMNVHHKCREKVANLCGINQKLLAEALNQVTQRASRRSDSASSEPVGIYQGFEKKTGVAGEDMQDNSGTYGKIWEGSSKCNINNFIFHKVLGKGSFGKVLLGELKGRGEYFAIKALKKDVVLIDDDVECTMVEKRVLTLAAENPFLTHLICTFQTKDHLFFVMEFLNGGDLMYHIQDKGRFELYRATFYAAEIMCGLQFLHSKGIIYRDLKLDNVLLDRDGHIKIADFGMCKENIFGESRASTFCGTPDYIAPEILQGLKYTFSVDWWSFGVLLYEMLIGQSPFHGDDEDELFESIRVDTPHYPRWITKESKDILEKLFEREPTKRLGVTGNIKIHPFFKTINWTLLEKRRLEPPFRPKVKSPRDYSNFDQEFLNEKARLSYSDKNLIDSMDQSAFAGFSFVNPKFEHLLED
T1 sequence (P06239 whole entry): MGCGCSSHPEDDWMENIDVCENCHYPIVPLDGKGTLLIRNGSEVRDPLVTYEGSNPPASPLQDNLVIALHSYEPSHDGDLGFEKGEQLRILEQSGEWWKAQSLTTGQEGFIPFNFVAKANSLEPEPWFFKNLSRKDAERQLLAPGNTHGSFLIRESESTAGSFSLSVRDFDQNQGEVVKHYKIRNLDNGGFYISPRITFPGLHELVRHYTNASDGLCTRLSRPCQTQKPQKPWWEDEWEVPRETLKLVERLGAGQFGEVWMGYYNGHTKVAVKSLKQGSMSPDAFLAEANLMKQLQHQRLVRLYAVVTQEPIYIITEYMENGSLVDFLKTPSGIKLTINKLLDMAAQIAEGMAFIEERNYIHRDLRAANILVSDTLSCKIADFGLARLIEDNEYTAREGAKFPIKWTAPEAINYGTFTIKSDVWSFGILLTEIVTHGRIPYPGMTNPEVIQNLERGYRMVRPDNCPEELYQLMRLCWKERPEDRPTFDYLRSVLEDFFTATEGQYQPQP

## CNC(=O)c1ccc2c(c1)C(=O)c1ccc(Nc3ccc(F)c(NC(=O)C4CC4)c3)cc1CC2 [Compound 2015]
[1]; 0.2 µM 2015, read-out: LCK residual activity
  remaining activity at 0.2 µM: 104%
[1]; 1 µM 2015, read-out: LCK residual activity
  remaining activity at 1 µM: 95.6%
[1]; LCK, 0.2 µM, read-out: residual activity
  remaining activity at 0.2 µM: 104%
[1]; LCK, 1 µM, read-out: residual activity
  remaining activity at 1 µM: 95.6%
[2]; 0.2 µM 2015, read-out: FES residual activity
  remaining activity at 0.2 µM: 105%
[2]; 1 µM 2015, read-out: FES residual activity
  remaining activity at 1 µM: 92.1%
[2]; FES, 0.2 µM, read-out: residual activity
  remaining activity at 0.2 µM: 105%
[2]; FES, 1 µM, read-out: residual activity
  remaining activity at 1 µM: 92.1%
[3]; 0.2 µM 2015, read-out: CDK4/CycD1 residual activity
  remaining activity at 0.2 µM: 117%
[3]; 0.2 µM 2015, read-out: CDK4/CycD2 residual activity
  remaining activity at 0.2 µM: 109%
[3]; 0.2 µM 2015, read-out: CDK4/CycD3 residual activity
  remaining activity at 0.2 µM: 70.3%
[3]; 1 µM 2015, read-out: CDK4/CycD1 residual activity
  remaining activity at 1 µM: 98.4%
[3]; 1 µM 2015, read-out: CDK4/CycD2 residual activity
  remaining activity at 1 µM: 103%
[3]; 1 µM 2015, read-out: CDK4/CycD3 residual activity
  remaining activity at 1 µM: 81.7%
[3]; CDK4/CycD1, 0.2 µM, read-out: residual activity
  remaining activity at 0.2 µM: 117%
[3]; CDK4/CycD2, 0.2 µM, read-out: residual activity
  remaining activity at 0.2 µM: 109%
[3]; CDK4/CycD2, 1 µM, read-out: residual activity
  remaining activity at 1 µM: 103%
[3]; CDK4/CycD3, 0.2 µM, read-out: residual activity
  remaining activity at 0.2 µM: 70.3%
[3]; CDK4/CycD3, 1 µM, read-out: residual activity
  remaining activity at 1 µM: 81.7%
[4]; 0.2 µM 2015, read-out: AXL residual activity
  remaining activity at 0.2 µM: 106%
[4]; 1 µM 2015, read-out: AXL residual activity
  remaining activity at 1 µM: 92.6%
[4]; AXL, 0.2 µM, read-out: residual activity
  remaining activity at 0.2 µM: 106%
[4]; AXL, 1 µM, read-out: residual activity
  remaining activity at 1 µM: 92.6%
[5]; 0.2 µM 2015, read-out: MKK4 residual activity
  remaining activity at 0.2 µM: 81.9%
[5]; 1 µM 2015, read-out: MKK4 residual activity
  remaining activity at 1 µM: 91.3%
[5]; MKK4, 0.2 µM, read-out: residual activity
  remaining activity at 0.2 µM: 81.9%
[5]; MKK4, 1 µM, read-out: residual activity
  remaining activity at 1 µM: 91.3%
[6]; 0.2 µM 2015, read-out: CDK16/CycY residual activity
  remaining activity at 0.2 µM: 99.3%
[6]; 1 µM 2015, read-out: CDK16/CycY residual activity
  remaining activity at 1 µM: 96.8%
[6]; CDK16/CycY, 0.2 µM, read-out: residual activity
  remaining activity at 0.2 µM: 99.3%
[6]; CDK16/CycY, 1 µM, read-out: residual activity
  remaining activity at 1 µM: 96.8%
[7]; 0.2 µM 2015, read-out: PKCdelta residual activity
  remaining activity at 0.2 µM: 95.6%
[7]; 1 µM 2015, read-out: PKCdelta residual activity
  remaining activity at 1 µM: 97%
[7]; PKCdelta, 0.2 µM, read-out: residual activity
  remaining activity at 0.2 µM: 95.6%
[7]; PKCdelta, 1 µM, read-out: residual activity
  remaining activity at 1 µM: 97%
[8]; 0.2 µM 2015, read-out: MYLK residual activity
  remaining activity at 0.2 µM: 109%
[8]; 1 µM 2015, read-out: MYLK residual activity
  remaining activity at 1 µM: 97.7%
[8]; MYLK, 0.2 µM, read-out: residual activity
  remaining activity at 0.2 µM: 109%
[8]; MYLK, 1 µM, read-out: residual activity
  remaining activity at 1 µM: 97.7%
